According to patent USRE32333E, “A-21978 Antibiotics and process for their production” (priority 1985, dated 1987):
Converted amounts (≈) assume the structure as drawn. “And” between values parts separate entries of the source, which are not always exact repeats. Equal values may be shown once. Read-outs that look alike come from different tables or passages of the source.

Experiments:
[1] = system: Staphylococcus aureus 3055; experiment: MIC, standard agar-dilution test (Table XI); type: cell-based; settings: aerobic, S. aureus 3055, sodium salt form
[2] = system: Group D Streptococcus 282; experiment: MIC, standard agar-dilution test (Table XI); type: cell-based; settings: aerobic, sodium salt form
[3] = system: Streptococcus pyogenes C203; experiment: MIC, standard agar-dilution test (Table XI); type: cell-based; settings: aerobic, S. pyogenes C203, sodium salt form
[4] = system: Streptococcus pneumoniae Park I; experiment: MIC, standard agar-dilution test (Table XI); type: cell-based; settings: aerobic, S. pneumoniae Park I, sodium salt form
[5] = system: Viridans Streptococcus 9943; experiment: MIC, standard agar-dilution test (Table XI); type: cell-based; settings: aerobic, sodium salt form
[6] = system: Neisseria gonorrhoeae 111076-4; experiment: MIC, standard agar-dilution test (Table XI); type: cell-based; settings: aerobic, N. gonorrhoeae 111076-4, sodium salt form
[7] = system: Staphylococcus aureus 3055; experiment: MIC, standard broth-dilution test (Table XII); type: cell-based; settings: aerobic, S. aureus 3055
[8] = system: Group D Streptococcus 282; experiment: MIC, standard broth-dilution test (Table XII); type: cell-based; settings: aerobic
[9] = system: Streptococcus pyogenes C203; experiment: MIC, standard broth-dilution test (Table XII); type: cell-based; settings: aerobic, S. pyogenes C203
[10] = system: Streptococcus pneumoniae Park I; experiment: MIC, standard broth-dilution test (Table XII); type: cell-based; settings: aerobic, S. pneumoniae Park I
[11] = system: Viridans Streptococcus 9943; experiment: MIC, standard broth-dilution test (Table XII); type: cell-based; settings: aerobic
Staphylococcus aureus [12] = experiment: MIC against clinical isolates, ICS agar-dilution (Table XIII); type: cell-based; settings: 10 clinical isolates, bracket = number of isolates with this MIC or range
Viridans Streptococcus = experiment: as above; type: cell-based; settings: 2 clinical isolates, bracket = number of isolates with this MIC or range
Actinomyces israelii = experiment: MIC against anaerobic bacteria, standard agar-dilution (Table XIV); type: cell-based; settings: anaerobe
Clostridium septicum = experiment: as above; type: cell-based; settings: anaerobe
Eubacterium aerofaciens = experiment: as above; type: cell-based; settings: anaerobe
[13] = system: Peptococcus asaccharolyticus; experiment: as above; type: cell-based; settings: anaerobe
Peptococcus prevoti = experiment: as above; type: cell-based; settings: anaerobe
[14] = system: Peptostreptococcus anaerobius; experiment: as above; type: cell-based; settings: anaerobe
[15] = system: Peptostreptococcus intermedius; experiment: as above; type: cell-based; settings: anaerobe
Propionibacterium acnes = experiment: as above; type: cell-based; settings: anaerobe
Bacteroides fragilis = experiment: as above; type: cell-based; settings: anaerobe
Fusobacterium symbiosum = experiment: as above; type: cell-based; settings: anaerobe
[16] = system: Fusobacterium necrophorum; experiment: as above; type: cell-based; settings: anaerobe
Staphylococcus aureus [17] = experiment: MIC, agar dilution (Table XV); type: cell-based
Text: (§1) ^1 MIC = minimum inhibitory concentration (μg/ml), agar dilution

Streptococcus pneumoniae [18] = experiment: MIC, agar dilution (Table XV); type: cell-based
Text: as §1

Streptococcus pyogenes [19] = experiment: MIC, agar dilution (Table XV); type: cell-based
Text: as §1

Staphylococcus aureus [20] = experiment: Experimental bacterial infection in mice, ED50; type: in vivo; settings: S. aureus infection, two doses, subcutaneous administration
Experimental: (§2) When two doses of test compound were administered to mice in illustrative infections, the activity observed as measured as an ED50 value [effective dose in mg/kg to protect fifty percent of the test animals: See Warren Wick, et al., J. Bacteriol, 81, 233-235 (1961)].

Streptococcus pneumoniae [21] = experiment: Experimental bacterial infection in mice, ED50; type: in vivo; settings: S. pneumoniae infection, two doses, subcutaneous administration
Experimental: as §2

Streptococcus pyogenes [22] = experiment: Experimental bacterial infection in mice, ED50; type: in vivo; settings: S. pyogenes infection, two doses
Experimental: as §2

[23] = system: Streptococcus faecalis (Guze); experiment: In vitro susceptibility (MIC) of the S. faecalis Guze strain; type: cell-based
Text: ^1 In vitro susceptibility of the S. faecalis Guze strain

[24] = Electrometric titration in 66% aqueous dimethylformamide; type: physicochemical; settings: 66% DMF, Na salt forms; factors: two determinations
Clostridium perfringens = settings: anaerobe, agar-dilution
[25] = Mouse
[26] = Rat, IV
Micrococcus luteus = experiment: Paper-disc agar-diffusion bioassay; settings: individual factors, Na salts
[27] = system: Streptococcus faecalis (Guze); experiment: Streptococcus faecalis descending rat pyelonephritis test; settings: 1.0 mg/kg x 7 subcutaneous

`CCC(C)CCCCCCCCC(=O)NC(Cc1c[nH]c2ccccc12)C(=O)NC(CC(N)=O)C(=O)NC(CC(=O)O)C(=O)NC1C(=O)NCC(=O)NC(CCCN)C(=O)NC(CC(=O)O)C(=O)NC(C)C(=O)NC(CC(=O)O)C(=O)NCC(=O)NC(CO)C(=O)NC(C(C)CC(=O)O)C(=O)NC(CC(=O)c2ccccc2N)C(=O)OC1C` (centres unmarked) [Factor C3] showed an MIC [1] of 0.06 µg/mL, an MIC [2] of 0.13 µg/mL and an MIC [3] of 0.25 µg/mL. The MIC [4] was 0.13 µg/mL, the MIC [5] was 0.5 µg/mL and the MIC [6] was 4.0 µg/mL. It also gave an MIC [7] of 0.13 µg/mL (≈ 0.0782 µM), an MIC [8] of 0.13 µg/mL (≈ 0.0782 µM) and an MIC [9] of 0.13 µg/mL (≈ 0.0782 µM). For the same compound, the MIC [10] was “.5 µg/mL”, the MIC [11] was 32.0 µg/mL (≈ 19.2 µM) and the “Minimum Inhibitory Concentration” value (Staphylococcus aureus [12]) was 0.06 to 0.12 µg/mL. For the same compound, the “Minimum Inhibitory Concentration” value (Viridans Streptococcus) was 0.5 µg/mL, the MIC (Actinomyces israelii) was 1.0 µg/mL (≈ 0.601 µM) and the MIC (Clostridium septicum) was 1.0 µg/mL (≈ 0.601 µM). For the same compound, the MIC (Eubacterium aerofaciens) was 4 µg/mL (≈ 2.41 µM), the MIC [13] was 1.0 µg/mL (≈ 0.601 µM) and the MIC (Peptococcus prevoti) was < 0.5 µg/mL. The MIC [14] was 1.0 µg/mL (≈ 0.601 µM), the MIC [15] was < 0.5 µg/mL and the MIC (Propionibacterium acnes) was 1.0 µg/mL (≈ 0.601 µM). For the same compound, the MIC (Bacteroides fragilis) was > 128 µg/mL, the MIC (Fusobacterium symbiosum) was 16 µg/mL (≈ 9.62 µM) and the MIC [16] was 32 µg/mL (≈ 19.2 µM). For the same compound, the MIC (Staphylococcus aureus [17]) was 0.06 µg/mL (≈ 0.0361 µM), the MIC (Streptococcus pneumoniae [18]) was 0.03 µg/mL (≈ 0.018 µM) and the MIC (Streptococcus pyogenes [19]) was 0.06 µg/mL (≈ 0.0361 µM). The ED50 (Staphylococcus aureus [20]) was 0.08 mg/kg, the ED50 (Streptococcus pneumoniae [21]) was 0.09 mg/kg and the ED50 (Streptococcus pyogenes [22]; oral administration) was 66 mg/kg. The ED50 (Streptococcus pyogenes [22]; subcutaneous administration) was 0.032 mg/kg, the MIC [23] was 0.13 µg/mL (≈ 0.0782 µM) and the “pKa Values (first group)” value [24] was 5.73 and 5.75. The “pKa Values (second group)” value [24] was 7.54 and 7.58, the MIC (Clostridium perfringens) was 8 µg/mL (≈ 4.81 µM) and the LD50 ([25]; IV) was < 50 mg/kg. The LD50 ([25]; SC) was 70 to 75 mg/kg, the LD50 [26] was < 160 mg/kg and the “Bioassay (Micrococcus luteus)” value (Micrococcus luteus) was 803 units/mg. For the same compound, the “Percent of Rats Cured” value ([27]; cure = kidney counts less than 10^2 per g) was 78 and the “Percent of Rats with a 4-Log Titer Decrease” value ([27]; once daily, kidney titer vs infected controls) was 78.
